# Data reported in publication PMC3873925, “Peptide-Mediated Liposomal Doxorubicin Enhances Drug Delivery Efficiency and Therapeutic Efficacy in Animal Models” (PLoS ONE, 2013).
# Assays:
# [1] = Pharmacokinetic and biodistribution studies in H460 xenograft-bearing mice; type: in vivo, NOD/SCID mice; conditions: 2 mg/kg i.v.
# Experimental: Human cancer xenografts were established in NOD/SCID mice (NLAC). H460 cells (5×10^6) were injected subcutaneously (s.c.) into the dorsolateral flanks of 4-week-old mice. […] At selected time points, three mice in each group were anaesthetized and sacrificed with 50% CO2 containing 50% O2. Blood samples were collected through submaxillary punctures, and plasma samples were prepared. After perfusion, xenograft tumors and mouse organs were removed and homogenized. Tumor cell nuclei were isolated and nuclear doxorubicin was extracted as described previously, [32]. The total doxorubicin concentration was measured as described by Mayer et al.. Total doxorubicin was quantified using spectrofluorometry at λex 485/20 nm and λem 645/40 nm (Synergy HT Multi-Detection Microplate Reader, BioTek Instruments, Winooski, VT).
# Tissue concentrations of doxorubicin were expressed as microequivalents per milliliter of plasma or per gram of tissue. A standard doxorubicin curve was prepared in control homogenates by following the above extraction procedure. Drug levels were estimated on the basis of doxorubicin fluorescent equivalents.
# H460 cells [2] = assay: Orthotopic lung adenocarcinoma model; type: in vivo, SCID mice; conditions: 1 mg/kg i.v. twice a week, eight injections, started five days after orthotopic injection
# Experimental: SCID mice (4-week-old) were anesthetized with isoflourane mixed with oxygen and placed in the right lateral decubitus position. The skin overlying the left chest wall in the mid-axillary line was treated with alcohol, and the underlying chest wall and intercostal spaces were visualized. H460 cells (5×10^5; single-cell suspensions of over 90% viability as determined by trypan blue exclusion) in 50 µL serum-free media plus Matrigel Matrix (BD Biosciences) (1∶1) were injected into the left lateral thorax, at the lateral dorsal axillary line. After tumor injection, the mice were turned to the left lateral decubitus position and observed for 45 to 60 minutes until fully recovered. Mice were then treated with different formulations of anti-cancer drugs. The dosage was 1 mg/kg twice a week for four weeks. Mouse body weight and survival rate were measured twice a week. The endpoint was determined by the mouse weight loss (>20% of body weight) or mouse activity assessment (hunching, stationary, ruffling and poor grooming). Mice were observed every day and given soft diet. Animal care was carried out in accordance with the guidelines of Academia Sinica, Taiwan.
# LL/2-derived tumors = assay: Syngenic animal model; type: in vivo, C57BL/6 mice; conditions: five injections
# Experimental: C57BL/6 mice (6-week-old, NLAC) were injected s.c. in the dorsolateral flank with 2×10^6 LL/2 cells in 100 µL serum-free media. […] The dosage of SP-5-2-LD was 1 or 2 mg/kg, injected twice a week for four weeks. Mouse body weight and tumor size were measured twice a week. Tumor volumes were calculated using the equation: length × (width)^2 ×0.52 and presented as standard error of the mean. This study used humane endpoint by determining the tumor size (>10% of body weight) or mouse weight loss (>20% of body weight). Mice were observed twice a week and given soft diet. Animal care was carried out in accordance with the guidelines of Academia Sinica, Taiwan.
# LL/2 cells = assay: Lung metastasis animal model; type: in vivo; conditions: 2 mg/kg i.v. twice a week, eight injections (16 mg/kg total)
# Experimental: LL/2 cells were washed twice by centrifugation in media without serum at room temperature, and re-suspended in media at 4°C prior to injection. Cell viability was determined by trypan blue exclusion, and only cell suspensions with greater than 95% viability and without cell clumping were used. Cells (1×10^5 cells/mouse) were inoculated via the lateral tail vein of 6-week-old female C57BL/6 mice. Mice were then treated with different formulations of anti-cancer drugs. The dosage was 1 or 2 mg/kg twice a week for four weeks. Mouse body weight and survival rate were measured twice a week. The endpoint was determined by the mouse weight loss (>20% of body weight) or mouse activity assessment (hunching, stationary, ruffling and poor grooming). Mice were observed every day and given soft diet. Animal care was carried out in accordance with the guidelines of Academia Sinica, Taiwan.
# H460 cells [3] = assay: Peptide-binding assay (cellular ELISA); type: cell-based, human
# Experimental: (§1) H460 cells were seeded in 96-well ELISA plates at 1×10^4 per well. After 24-hour incubation, cells were fixed with 3.7% paraformaldehyde for 10 min at 4°C and then blocked with 1% BSA in PBS for 1 hour at room temperature. Serial diluted biotinylated peptides were incubated with cells for 1 hour at room temperature. After twice washing with PBS, cells were incubated with HRP-conjugated streptavidin (1∶5000 dilution) for 1 hour and then washed with PBS supplemented with 0.1% tween-20 for four times. Binding activity was assessed by cellular ELISA with optical density at 490 nm. For competition assay, cells were firstly incubated with unlabeled peptides at room temperature for 1 hour before incubated with 10 µg/ml biotinylated SP5-2 peptides.
# H460 cells [4] = assay: Peptide competition assay (cellular ELISA); type: cell-based, human; conditions: B-SP5-2 10 µg/ml, unlabeled peptide 22 to 600 µg/ml
# Experimental: as §1
molecule,measurement,setting,value
"COc1cccc2c1C(=O)c1c(O)c3c(c(O)c1C2=O)C[C@@](O)(C(=O)CO)C[C@@H]3O[C@H]1C[C@H](N)[C@H](O)[C@H](C)O1 [FD, doxorubicin]",AUC0-72 h Blood,[1],5.9 µg·h/g
same,AUC0-72 h Heart,[1],26.3 µg·h/g
same,AUC0-72 h Kidney,[1],87.2 µg·h/g
same,AUC0-72 h Liver,[1],293.6 µg·h/g
same,AUC0-72 h Lung,[1],421.2 µg·h/g
same,AUC0-72 h Nuclei,[1]; doxorubicin bound to tumor cell nuclei,5.5 µg·h/g
same,AUC0-72 h Tumor,[1]; doxorubicin in tumor tissue,8.5 µg·h/g
same,mean life spans,H460 cells [2],25 days
same,"tumor size, fold larger than in equivalent SP5-2-LD-treated mice",LL/2-derived tumors; 1 mg/kg i.v. twice a week,1.55 fold
same,"tumor size, fold larger than in equivalent SP5-2-LD-treated mice",LL/2-derived tumors; 2 mg/kg i.v. twice a week,2.38 fold
same,median overall survival,LL/2 cells,21 days
"TDSILRSYDGGG [MP5-2, mutant peptide, WTY motif changed to GGG]",binding activity,"H460 cells [3]; H460 and LL/2 cells, WTY motif changed to GGG",remarkable loss of binding activity
TDSILRSYDWTY [SP5-2],minimum binding activity started at,"H460 cells [3]; H460 cells, biotinylated peptide",1 µg/mL
same,inhibition of Biotin-labeled SP5-2 binding to H460 cells by unlabeled peptide,H460 cells [4],competitively inhibited
